Data: patent publication US9993001B2, “Herbicidal composition” (ISHIHARA SANGYO KAISHA, LTD., priority 2014, dated 2018)

Columns and labels:
Format in all cases: in vivo
[1] = test system: barnyardgrass (Echinochloa crus-qalli L.); test: Test Example 5: adzuki bean field, soil treatment, metobromuron + fluazifop-P-butyl; settings: 700 g/ha; soil treatment, adzuki bean field; 39th day after treatment
Source text: (§1) When the herbicidal activity in a case where two active ingredients are combined, is larger than the simple sum of the respective herbicidal activities of the two active ingredients (the expected activity), it is called a synergistic effect. The activity expected by the combination of two active ingredients can be calculated as follows (Colby S. R., “Weed”, vol. 15, p. 20-22, 1967). E=α+β−(α×β[…]) where α: growth inhibition rate when treated with x (g/ha) of herbicide X, • β: growth inhibition rate when treated with y (g/ha) of herbicide Y, • E: growth inhibition rate expected when treated with x (g/ha) of herbicide X and y (g/ha) of herbicide Y.
(§2) On the 19th day after treatment, the state of growth of barnyardgrass was visually observed and evaluated in accordance with the following standards. The growth inhibition rate (%) [measured value] and the growth inhibition rate (%) [calculated value] calculated by the Colby's method, are shown in Table 2.
(§3) Growth inhibition rate (%)=inhibition rate) (%) of 0 (equivalent to the non-treated area) to 100 (complete kill) […]
On the 39th day after treatment, the state of growth of barnyardgrass (Echinochloa crus-qalli L.) which occurred naturally, was visually observed and evaluated in the same manner as in Test Example 1.

[2] = test system: black nightshade (Solanum nigrum L.); test: Test Example 23: pot, soil treatment, metobromuron + fluazifop-P-butyl; settings: 131.25 g/ha; soil treatment, pot; 20th day after treatment
Source text: as §1, §2
(§4) Growth inhibition rate (%)=inhibition rate) (%) of 0 (equivalent to the non-treated area) to 100 (complete kill)
Soil was put into a 1/300,000 ha pot, and seeds of black nightshade (Solanum nigrum L.) were sown. […]
On the 20th day after treatment, the state of growth of black nightshade was visually observed and evaluated in the same manner as in Test Example 1.

[3] = test system: barnyardgrass (Echinochloa crus-qalli L.); test: Test Example 4: soybean field, soil treatment, metobromuron + trifluralin; settings: 890 g/ha, soil treatment, soybean field, 50th day after treatment, read-out: Growth inhibition rate of barnyardgrass (%) Measured value
Source text: as §1, §2, §3
On the 50th day after treatment, the state of growth of barnyardgrass (Echinochloa crus-qalli L.) which occurred naturally, was visually observed and evaluated in the same manner as in Test Example 1.

[4] = test system: Oriental lady's thumb (Persicaria longiseta); test: Test Example 7: common bean field, soil treatment, metobromuron + trifluralin; settings: 1335 g/ha, soil treatment, common bean field, 49th day after treatment, read-out: Growth inhibition rate of Oriental lady's thumb (%) Measured value
Source text: as §1, §2, §3
On the 49th day after treatment, the state of growth of Oriental lady's thumb (Persicaria longiseta) which occurred naturally, was visually observed and evaluated in the same manner as in Test Example 1.

[5] = test system: common lambsquarters (Chenopodium album L.); test: Test Example 24: pot, soil treatment, metobromuron + trifluralin; settings: soil treatment, pot, 21st day after treatment, read-out: Growth inhibition rate of common lambsquarters (%) Measured value
Source text: as §1, §2, §4
Soil was put into a 1/300,000 ha pot, and seeds of common lambsquarters (Chenopodium album L.) were sown. On the day after seeding, predetermined amounts of SC containing metobromuron as active ingredient (same as in Test Example 1) and EC containing trifluralin as active ingredient (same as in Test Example 4) were diluted with water corresponding to 1,000 L per hectare and applied for soil treatment.
On the 21st day after treatment, the state of growth of common lambsquarters was visually observed and evaluated in the same manner as in Test Example 1.

[6] = test system: common chickweed (Stellaria media L.); test: Test Example 25: pot, soil treatment, metobromuron + trifluralin; settings: 445 g/ha, soil treatment, pot, 21st day after treatment, read-out: Growth inhibition rate of common chickweed (%) Measured value

Compound	Growth inhibition rate of barnyardgrass (%) Measured value [1] [%]	Growth inhibition rate of black nightshade (%) Measured value [2] [%]	inhibition at 890 g/ha [3] [%]	inhibition at 1335 g/ha [4] [%]	inhibition at 296.7 g/ha ([5]; 296.7 g/ha) [%]	inhibition at 445 g/ha ([5]; 445 g/ha) [%]	inhibition at 667.5 g/ha ([5]; 667.5 g/ha) [%]	inhibition at 445 g/ha [6] [%]
CCCCOC(=O)[C@@H](C)Oc1ccc(Oc2ccc(C(F)(F)F)cn2)cc1 [Fluazifop-P-butyl, butyl (R)-2-[4-[5-(trifluoromethyl)-2-pyridyloxy]phenoxy] propionate]	55	25						
CCCN(CCC)c1c([N+](=O)[O-])cc(C(F)(F)F)cc1[N+](=O)[O-] [Trifluralin, α,α,α-trifluoro-2,6-dinitro-N,N-dipropyl-p-toluidine]			20	40	20	15	48	35
